The molecules below were run on monocytic THP1 cells infected with HIV VSV-G pseudotyped GFP-NEF reporter virus (assay: cells). Details: Human immunodeficiency virus 1, THP-1, 24 h.
Format: cell-based
Molecule Cc1cc(/C=C/C#N)cc(C)c1Oc1nc(NC23CC(C#N)(C2)C3)nc2c1C1(C)OC[C@@H](F)CN1C2=O (stereo partly drawn) [Example 201, 3-(((7S)-4-(4-((E)-2-cyanovinyl)-2,6-dimethylphenoxy)-7-fluoro-4b-methyl-10-oxo-4b,7,8,10-tetrahydro-6H-pyrimido[5′,4′:3,4]pyrrolo[2,1-b][1,3]oxazin-2-yl)amino)bicyclo[1.1.1]pentane-1-carbonitrile] has an EC50 of 88.6 nM.
Molecule Cc1cc(/C=C/C#N)cc(C)c1Oc1nc(NC23CC(C#N)(C2)C3)nc2c1[C@H](C(F)(F)F)NC2=O [Example 247, (R,E)-3-((4-(4-(2-cyanovinyl)-2,6-dimethylphenoxy)-7-oxo-5-(trifluoromethyl)-6,7-dihydro-5H-pyrrolo[3,4-d]pyrimidin-2-yl)amino)bicyclo[1.1.1]pentane-1-carbonitrile] has an EC50 of 40.2 nM.
C=Cc1c2c(Oc3c(C)cc(/C=C/C#N)cc3C)nc(NC34CC(C#N)(C3)C4)nc2nn1C [Compound 88, (E)-3-((4-(4-(2-cyanovinyl)-2,6-dimethylphenoxy)-2-methyl-3-vinyl-2H-pyrazolo[3,4-d]pyrimidin-6-yl)amino)bicyclo[1.1.1]pentane-1-carbonitrile] gave an EC50 of 23.4 nM.
Work on Cc1cc(/C=C/C#N)cc(C)c1Oc1nc(NC23CC(C#N)(C2)C3)nc2c1C1(C)O[C@@H](CO)CN1C2=O (stereo partly drawn) [Compound 264, 3-(((6R)-4-(4-((E)-2-cyanovinyl)-2,6-dimethylphenoxy)-6-(hydroxymethyl)-4b-methyl-9-oxo-4b,6,7,9-tetrahydrooxazolo[3′,2′:1,5]pyrrolo[3,4-d]pyrimidin-2-yl)amino)bicyclo[1.1.1]pentane-1-carbonitrile] yielded an EC50 of 118 nM.
Molecule Cc1cc(/C=C/C#N)cc(C)c1Oc1nc(NC23CC(C#N)(C2)C3)nc2c1nc(C)n2CC(F)F (single isomer, unassigned) [Compound 21, (E)-3-((6-(4-(2-cyanovinyl)-2,6-dimethylphenoxy)-9-(2,2-difluoroethyl)-8-methyl-9H-purin-2-yl)amino)bicyclo[1.1.1]pentane-1-carbonitrile] has an EC50 of 280 nM.
With Cc1cc(/C=C/C#N)cc(C)c1Oc1nc(NC23CC(C#N)(C2)C3)nc2ccn(C)c12 [Example 250, 3-[[4-[4-[(E)-2-cyanovinyl]-2,6-dimethyl-phenoxy]-5-methyl-pyrrolo[3,2-d]pyrimidin-2-yl]amino]bicyclo[1.1.1]pentane-1-carbonitrile] the EC50 was 64 nM.
With CNC(=O)Cn1nc2nc(NC34CC(C#N)(C3)C4)nc(Oc3c(C)cc(/C=C/C#N)cc3C)c2c1C [Compound 98, (E)-2-(6-((3-cyanobicyclo[1.1.1]pentan-1-yl)amino)-4-(4-(2-cyanovinyl)-2,6-dimethylphenoxy)-3-methyl-2H-214-pyrazolo[3,4-d]pyrimidin-2-yl)-N-methylacetamide] the EC50 was 94.3 nM.
Cc1cc(/C=C/C#N)cc(C)c1Oc1nc(NC23CC(C#N)(C2)C3)nc2[nH]nc(Cl)c12 [Compound 94, (E)-3-((3-chloro-4-(4-(2-cyanovinyl)-2,6-dimethylphenoxy)-1H-pyrazolo[3,4-d]pyrimidin-6-yl)amino)bicyclo[1.1.1]pentane-1-carbonitrile] was tested, and the EC50 was 72.5 nM.
In the case of Cc1cc(/C=C/C#N)cc(C)c1Oc1nc(NC23CC(C#N)(C2)C3)nc2[nH]nc(-c3ccn(C)n3)c12 [Compound 107, (E)-3-((4-(4-(2-cyanovinyl)-2,6-dimethylphenoxy)-3-(1-methyl-1H-pyrazol-3-yl)-1H-pyrazolo[3,4-d]pyrimidin-6-yl)amino)bicyclo[1.1.1]pentane-1-carbonitrile], the EC50 is reported as 443 nM.
Cc1cc(/C=C/C#N)cc(C)c1Oc1nc(NC23CC(C#N)(C2)C3)nc2nn3ccccc3c12 [Compound 299, (E)-3-((4-(4-(2-cyanovinyl)-2,6-dimethylphenoxy)pyrido[1′,2′:1,5]pyrazolo[3,4-d]pyrimidin-2-yl)amino)bicyclo[1.1.1]pentane-1-carbonitrile] showed an EC50 of 40.1 nM.
C=Cc1n[nH]c2nc(NC34CC(C#N)(C3)C4)nc(Oc3c(C)cc(/C=C/C#N)cc3C)c12 [Compound 105, (E)-3-((4-(4-(2-cyanovinyl)-2,6-dimethylphenoxy)-3-vinyl-1H-pyrazolo[3,4-d]pyrimidin-6-yl)amino)bicyclo[1.1.1]pentane-1-carbonitrile] showed an EC50 of 182 nM.
With Cc1cc(/C=C/C#N)cc(C)c1Oc1nc(NC23CC(C#N)(C2)C3)nc2nc(-c3cn[nH]c3)[nH]c12 [Compound 66, (E)-3-((6-(4-(2-cyanovinyl)-2,6-dimethylphenoxy)-8-(1H-pyrazol-4-yl)-7H-purin-2-yl)amino)bicyclo[1.1.1]pentane-1-carbonitrile] the EC50 was 298 nM.
Cc1cc(/C=C/C#N)cc(C)c1Oc1nc(NC23CC(C#N)(C2)C3)nc2c1C1(C)OCC(C(F)(F)F)CN1C2=O (stereo not drawn) [Example 253, (E)-3-((4-(4-(2-cyanovinyl)-2,6-dimethylphenoxy)-4b-methyl-10-oxo-7-(trifluoromethyl)-4b,7,8,10-tetrahydro-6H-pyrimido[5′,4′:3,4]pyrrolo[2,1-b][1,3]oxazin-2-yl)amino)bicyclo[1.1.1]pentane-1-carbonitrile] showed an EC50 of 253 nM.
For Cc1cc(/C=C/C#N)cc(C)c1Oc1nc(NC23CC(C#N)(C2)C3)nc2nc3n(c12)C[C@H](C)CO3 [Compound 185, (S,E)-3-((4-(4-(2-cyanovinyl)-2,6-dimethylphenoxy)-7-methyl-7,8-dihydro-6H-[1,3]oxazino[2,3-f]purin-2-yl)amino)bicyclo[1.1.1]pentane-1-carbonitrile], the EC50 was 22.3 nM.
For Cc1cc(/C=C/C#N)cc(C)c1Oc1nc(NC23CC(C#N)(C2)C3)nc2c1C(O)(CF)N(C1CC1)C2=O (stereo not drawn) [Compound 267, (E)-3-((4-(4-(2-cyanovinyl)-2,6-dimethylphenoxy)-6-cyclopropyl-5-(fluoromethyl)-5-hydroxy-7-oxo-6,7-dihydro-5H-pyrrolo[3,4-d]pyrimidin-2-yl)amino)bicyclo[1.1.1]pentane-1-carbonitrile], the EC50 was 80.3 nM.
For Cc1cc(/C=C/C#N)cc(C)c1Oc1nc(NC23CC(C#N)(C2)C3)nc2c1C1(C)OCC3(CCC3)CN1C2=O (stereo not drawn) [Example 198, (E)-3-((4′-(4-(2-cyanovinyl)-2,6-dimethylphenoxy)-4b′-methyl-10′-oxo-4b′,10′-dihydro-6′H,8′H-spiro[cyclobutane-1,7′-pyrimido[5′,4′:3,4]pyrrolo[2,1-b][1,3]oxazin]-2′-yl)amino)bicyclo[1.1.1]pentane-1-carbonitrile], the EC50 was 115 nM.
Cc1cc([C@@H]2C[C@@H]2C#N)cc(C)c1Oc1nc(NC23CC(C#N)(C2)C3)nc2nn(C)cc12 (racemic) [Compound 131, (rac)-3-[[4-[4-[(1R,2S)-2-cyanocyclopropyl]-2,6-dimethyl-phenoxy]-2-methyl-pyrazolo[3,4-d]pyrimidin-6-yl]amino]bicyclo[1.1.1]pentane-1-carbonitrile] gave an EC50 of 1470 nM.
Cc1cc(/C=C/C#N)cc(C)c1Oc1nc(NC23CC(C#N)(C2)C3)nc2c1C1OCCCN1C2=O (racemic) [Compound 278, (E)-3-((4-(4-(2-cyanovinyl)-2,6-dimethylphenoxy)-10-oxo-4b,7,8,10-tetrahydro-6H-pyrimido[5′,4′:3,4]pyrrolo[2,1-b][1,3]oxazin-2-yl)amino)bicyclo[1.1.1]pentane-1-carbonitrile] was tested, and the EC50 was 30.8 nM.
Cc1cc(/C=C/C#N)cc(Cl)c1Oc1nc(NC23CC(C#N)(C2)C3)nc2nn(C)cc12 [Compound 6, (E)-3-((4-(2-chloro-4-(2-cyanovinyl)-6-methylphenoxy)-2-methyl-2H-pyrazolo[3,4-d]pyrimidin-6-yl)amino)bicyclo[1.1.1]pentane-1-carbonitrile] showed an EC50 of 17.4 nM.
Molecule Cc1cc(/C=C/C#N)cc(C)c1Oc1nc(NC23CC(C#N)(C2)C3(F)F)nc2nc3n(c12)CCCO3 [Compound 188, (E)-3-((4-(4-(2-cyanovinyl)-2,6-dimethylphenoxy)-7,8-dihydro-6H-[1,3]oxazino[2,3-f]purin-2-yl)amino)-2,2-difluorobicyclo[1.1.1]pentane-1-carbonitrile] has an EC50 of 70.4 nM.
COCCNc1nc2nc(NC34CC(C#N)(C3)C4)nc(Oc3c(C)cc(/C=C/C#N)cc3C)c2[nH]1 [Compound 46, (E)-3-((6-(4-(2-cyanovinyl)-2,6-dimethylphenoxy)-8-((2-methoxyethyl)amino)-7H-purin-2-yl)amino)bicyclo[1.1.1]pentane-1-carbonitrile] showed an EC50 of 88.6 nM.
Molecule CO[C@H]1COC2(C)c3c(Oc4c(C)cc(/C=C/C#N)cc4C)nc(NC45CC(C#N)(C4)C5)nc3C(=O)N2C1 (single isomer, unassigned) [Example 235] has an EC50 of 22.8 nM.
Cc1cc(/C=C/C#N)cc(C)c1Oc1nc(NC23CC(C#N)(C2)C3)nc2c1nc(C)n2CCC#N [Compound 57, (E)-3-((9-(2-cyanoethyl)-6-(4-(2-cyanovinyl)-2,6-dimethylphenoxy)-8-methyl-9H-purin-2-yl)amino)bicyclo[1.1.1]pentane-1-carbonitrile] showed an EC50 of 147 nM.
Molecule Cc1cc(/C=C/C#N)cc(C)c1Oc1nc(NC23CC(C#N)(C2)C3)nc2c1ncn2CC1(C#N)CC1 [Compound 45, (E)-3-((9-((1-cyanocyclopropyl)methyl)-6-(4-(2-cyanovinyl)-2,6-dimethylphenoxy)-9H-purin-2-yl)amino)bicyclo[1.1.1]pentane-1-carbonitrile] has an EC50 of 53 nM.
Cc1cc(/C=C/C#N)cc(C)c1Oc1nc(NC23CC(C#N)(C2)C3)nc2c1nc(C)n2C(F)F [Compound 15, (E)-3-((6-(4-(2-cyanovinyl)-2,6-dimethylphenoxy)-9-(difluoromethyl)-8-methyl-9H-purin-2-yl)amino)bicyclo[1.1.1]pentane-1-carbonitrile] was tested, and the EC50 was 109 nM.
In the case of CO[C@@H]1COC2(C)c3c(Oc4c(C)cc(/C=C/C#N)cc4C)nc(NC45CC(C#N)(C4)C5)nc3C(=O)N2C1 (single isomer, unassigned) [Example 244], the EC50 is reported as 111 nM.
Molecule Cc1cc(/C=C/C#N)cc(C)c1Oc1nc(NC23CC(C#N)(C2)C3)nc2nn(CC3CC3)cc12 [Compound 145, (E)-3-((4-(4-(2-cyanovinyl)-2,6-dimethylphenoxy)-2-(cyclopropylmethyl)-2H-pyrazolo[3,4-d]pyrimidin-6-yl)amino)bicyclo[1.1.1]pentane-1-carbonitrile] has an EC50 of 89.1 nM.

— patent US20250333424A1, “ANTIVIRAL COMPOUNDS” (Gilead Sciences, Inc., priority 2024, published 2025)
